System: biopsy-derived HSV-2-specific CD4 TRM
Assay: single peptide test with biopsy-derived HSV-2-specific CD4 TRM, IFN-γ secretion
Assay type: cell-based, human
Settings: peptide at 1 μg/ml; HLA-expressing cells as antigen presenting cells; media control gave no response
From the text: FIG. 14. CD4 epitopes: peptide pools→singles. For this example, biopsy-derived cells recognize Cos7 co-transfected with the combination of a subject HLA molecule and HSV-2 UL19 gene. A rectangular matrix of peptides covering UL19 was created and row and column pools were made as indicated on the X axis of the top graph. Only one row pool and one column pool gave a positive proliferative response using the assay described in FIG. 13. The peptide at the intersection of the positive row and column pools, UL19 305-319 (SEQ ID NO: 14), was tested at 1 μg/ml using HLA-expressing cells as antigen presenting cells and biopsy-derived HSV-2-specific CD4 TRM as responder cells. The readout was IFN-γ secretion, as shown in the bottom graphs.
The technology used to determine the fine peptide specificity of biopsy-derived CD4 T cells that recognize HSV-2 has been described in Johnston, et al., Journal of Virology 88, 4921-4931 (2014). In brief, every HSV-2 was expressed. […] T cell activation was detected by proliferation or IFN-γ secretion assays. Once the identity of reactive HSV-2 proteins were determined, peptides from within that protein were tested in repeat assays as described in Johnston, et al., Journal of Virology 88, 4921-4931, (2014). In some cases, dose-response assays were conducted as described in Jing, et al., Journal of Immunology 196, 2205-2218, (2016). […]

TYGEMVLNGANLVTA [SEQ ID NO: 14]
IFN-γ response from the biopsy cells: elicited an IFN-γ response

— patent US20200164060A1, “HERPES SIMPLEX VIRUS VACCINE EPITOPES SP[…] TISSUE RESIDENT MEMORY T CELLS” (priority 2017, published 2020)
